Assays:
[1] = biological target: GSK3β (h) (Homo sapiens, UniProt P49841); assay: GSK-3β human kinase inhibition, SPA; assay type: biochemical; details: read-out: GSK3b pIC50 (converted)
How it was run: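 Radiometric: 33P-labelled peptide captured on streptavidin SPA beads after EDTA stop and imaged on Leadseeker. Reaction ran 1 h at RT, 1 μM cold ATP with 2 nM [γ-33P]ATP, 1 μM biotin-peptide substrate, human GSK3β 1 μg/ml, pH 7.4 Tris buffer.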

[2] = biological target: PLK4 (h) (Homo sapiens, UniProt O00444); assay: PLK-4 human kinase inhibition, scintillation proximity assay (SPA); assay type: biochemical; details: read-out: PLK4 pIC50 (converted)
[3] = tested on: MDA-MB-231; assay: Cellular proliferation assay (Alamar blue), MDA-MB-231; assay type: cell-based; details: Homo sapiens, 10% FCS, 72 hours with compound, Alamar blue 24 h, read-out: MDA/MB231 (cellular proliferation assay, Table 4) (converted)
How it was run: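 Alamar blue fluorescence (544/590 nm) measured viable cells after 72 h compound exposure; dye incubation 4 h (HCT-116), 6 h (U87-MG) or 24 h (A2780, MDA-MB-231). Cells pre-seeded 24 h, grown in 10% FCS, 37° C, 5% CO2; effect expressed relative to control cells.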

[4] = biological target: PLK1 T210D (h) (Homo sapiens, UniProt P53350, T210D); assay: PLK1 human kinase inhibition, SPA; assay type: biochemical; details: read-out: PLK1 pIC50 (converted)
How it was run: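 Kinase incubated 40 min at room temperature with 0.1 μM ATP (2 nM [γ-33P]ATP tracer), 2 μM biotinylated peptide, pH 8.0 Hepes buffer with 2 mM MnCl2 and 1 mM DTT; enzyme at 0.125 ng/ml. Stopped with EDTA; 33P-peptide bound to streptavidin scintillant beads and imaged.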

Sequence of GSK3β (h) (P49841 whole entry): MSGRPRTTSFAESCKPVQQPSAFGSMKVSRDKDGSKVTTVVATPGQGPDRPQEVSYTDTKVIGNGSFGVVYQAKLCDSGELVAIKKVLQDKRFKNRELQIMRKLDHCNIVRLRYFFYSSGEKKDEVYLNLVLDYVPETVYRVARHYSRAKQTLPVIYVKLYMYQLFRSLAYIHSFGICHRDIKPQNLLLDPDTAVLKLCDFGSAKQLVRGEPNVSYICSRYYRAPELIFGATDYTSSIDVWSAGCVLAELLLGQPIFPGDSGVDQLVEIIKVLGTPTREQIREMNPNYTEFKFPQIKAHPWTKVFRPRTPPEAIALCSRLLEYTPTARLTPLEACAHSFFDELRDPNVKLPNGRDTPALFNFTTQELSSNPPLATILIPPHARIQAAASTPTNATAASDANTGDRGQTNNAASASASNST
Sequence of PLK1 T210D (h) (P53350 whole entry T210D): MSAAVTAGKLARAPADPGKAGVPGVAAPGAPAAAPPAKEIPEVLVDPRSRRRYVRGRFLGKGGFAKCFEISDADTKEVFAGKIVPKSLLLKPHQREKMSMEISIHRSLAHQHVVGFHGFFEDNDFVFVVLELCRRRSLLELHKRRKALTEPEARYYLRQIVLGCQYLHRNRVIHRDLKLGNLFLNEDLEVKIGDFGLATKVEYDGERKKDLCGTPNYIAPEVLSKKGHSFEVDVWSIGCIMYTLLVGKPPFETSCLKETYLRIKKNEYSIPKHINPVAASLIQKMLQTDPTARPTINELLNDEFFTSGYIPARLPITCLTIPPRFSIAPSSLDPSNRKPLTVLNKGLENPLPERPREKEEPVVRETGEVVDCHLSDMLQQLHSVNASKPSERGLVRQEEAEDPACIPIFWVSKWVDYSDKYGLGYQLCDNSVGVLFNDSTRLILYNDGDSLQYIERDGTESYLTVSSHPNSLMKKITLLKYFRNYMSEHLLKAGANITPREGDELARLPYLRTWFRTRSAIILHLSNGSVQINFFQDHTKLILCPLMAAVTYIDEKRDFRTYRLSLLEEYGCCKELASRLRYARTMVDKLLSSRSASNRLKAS
Sequence of PLK4 (h) (O00444 whole entry): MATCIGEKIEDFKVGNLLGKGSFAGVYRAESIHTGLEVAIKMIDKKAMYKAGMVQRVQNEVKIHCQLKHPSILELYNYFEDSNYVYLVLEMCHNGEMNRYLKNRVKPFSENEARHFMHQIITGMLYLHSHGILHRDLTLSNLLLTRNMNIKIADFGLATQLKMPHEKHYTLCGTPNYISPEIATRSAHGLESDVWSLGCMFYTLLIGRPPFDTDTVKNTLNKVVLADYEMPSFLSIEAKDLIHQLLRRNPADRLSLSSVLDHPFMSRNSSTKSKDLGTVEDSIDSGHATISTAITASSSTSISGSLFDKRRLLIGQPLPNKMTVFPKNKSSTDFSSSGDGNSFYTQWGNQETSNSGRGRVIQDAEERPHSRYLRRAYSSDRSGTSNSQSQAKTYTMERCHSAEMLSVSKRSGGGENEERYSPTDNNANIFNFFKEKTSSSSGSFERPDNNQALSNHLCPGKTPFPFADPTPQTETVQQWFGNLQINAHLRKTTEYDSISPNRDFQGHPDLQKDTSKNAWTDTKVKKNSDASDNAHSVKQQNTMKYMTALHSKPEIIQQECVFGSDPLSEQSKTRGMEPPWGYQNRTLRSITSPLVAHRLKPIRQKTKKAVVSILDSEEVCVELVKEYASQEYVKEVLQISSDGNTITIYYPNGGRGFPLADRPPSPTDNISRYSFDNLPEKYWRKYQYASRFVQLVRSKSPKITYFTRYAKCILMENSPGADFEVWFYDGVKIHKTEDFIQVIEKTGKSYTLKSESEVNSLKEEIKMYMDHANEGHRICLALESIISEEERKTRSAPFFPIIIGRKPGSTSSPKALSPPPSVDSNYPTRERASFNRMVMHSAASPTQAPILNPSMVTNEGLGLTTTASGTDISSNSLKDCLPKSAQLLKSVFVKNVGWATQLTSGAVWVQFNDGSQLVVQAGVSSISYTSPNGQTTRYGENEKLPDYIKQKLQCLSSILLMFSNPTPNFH

Row | melting point | SMILES | IC50 [1] | IC50 [2] | IC50 [3] | IC50 [4]
1 | 253.6 to 254.9 °C | O=C1NCCCc2cc(ccn2)-c2ccnc(n2)Nc2cccc(c2)CN[C@H]1CO [Compound 19] | 0.0372 µM | 1.2 µM | 6.17 µM | > 10 µM
2 | 243.2 to 244.3 °C | O=C1CN2CCN(CC2)Cc2cccc(c2)Nc2nccc(n2)-c2ccnc(c2)CCCN1 [Compound 21] | 0.0166 µM | 4.27 µM | > 10 µM | > 10 µM
3 |  | O=C1CN2CCN(CC2)Cc2cc(ccc2N2CCOCC2)Nc2nccc(n2)-c2cccc(c2)OCCCN1 [Compound 103] | 1.55 µM | 1.1 µM | > 10 µM | > 10 µM
4 |  | CN1CCCNC(=O)[C@H](CO)NCc2cccc(c2)Nc2nccc(n2)-c2ccc(cc2)C1 [Compound 113] | > 10 µM | 1.17 µM | > 10 µM | > 10 µM
5 |  | O=C1NCCNCc2ccc(cc2)-c2ccnc(n2)Nc2ccc(N3CCOCC3)c(c2)CN[C@H]1CO [Compound 115] | > 10 µM | 1.35 µM | > 10 µM | > 10 µM
6 |  | COc1ccc2cc1CNCCNC(=O)CN1CCN(CC1)Cc1cc(ccc1N1CCOCC1)Nc1nccc-2n1 [Compound 126] | > 10 µM | 0.813 µM | > 10 µM | > 10 µM
7 |  | COc1ccc2cc1CN(C)CCCNC(=O)CN1CCN(CC1)Cc1cc(cc(NC(C)C)c1)Nc1nccc-2n1 [Compound 130] | 5.37 µM | 1.23 µM | > 10 µM | > 10 µM
8 |  | CN1CCNC(=O)CN2CCN(CC2)Cc2cc(cc(N3CCOCC3)c2)Nc2nccc(n2)-c2ccc(cc2)C1 [Compound 135] | 4.37 µM | 1.74 µM | > 10 µM | > 10 µM
9 |  | COc1ccc2cc1CN(C)CCCNC(=O)CN1CCN(CC1)Cc1cc(cc(N3CCOCC3)c1)Nc1nccc-2n1 [Compound 141] | > 10 µM | 3.02 µM | > 10 µM | > 10 µM
10 |  | COc1ccc2cc1CN(C)CCNC(=O)CN1CCN(CC1)Cc1cc(cc(NC(C)C)c1)Nc1nccc-2n1 [Compound 142] | > 10 µM | 3.31 µM | > 10 µM | > 10 µM
11 |  | COc1ccc2cc1CN(C)CCCNC(=O)CN1CCN(CC1)Cc1cc(Br)cc(c1)Nc1nccc-2n1 [Compound 144] | > 10 µM | 4.17 µM | > 10 µM | > 10 µM
12 |  | COc1ccc2cc1CN(C)CCNC(=O)CN1CCN(CC1)Cc1cc(cc(N3CCOCC3)c1)Nc1nccc-2n1 [Compound 145] | > 10 µM | 4.37 µM | > 10 µM | > 10 µM
13 |  | COc1ccc2cc1CN(C)CCCNC(=O)CN1CCN(CC1)Cc1cccc(c1)Nc1nccc-2n1 [Compound 146] | > 10 µM | 6.76 µM | > 10 µM | > 10 µM
14 |  | COc1ccc2cc1CN(C)CCNC(=O)CN1CCN(CC1)Cc1cccc(c1)Nc1nccc-2n1 [Compound 147] | > 10 µM | > 10 µM | > 10 µM | > 10 µM
15 |  | CC(C)Nc1cc2cc(c1)Nc1nccc(n1)-c1ccc(cc1)CN(C)CCNC(=O)[C@@H]1CCCN1C2 [Compound 153] | 3.24 µM | 0.776 µM | > 10 µM | > 10 µM
16 |  | CN1CCNC(=O)[C@@H]2CCCN2Cc2cc(Br)cc(c2)Nc2nccc(n2)-c2ccc(cc2)C1 [Compound 155] | 2.34 µM | 0.832 µM | > 10 µM | > 10 µM
17 |  | O=C1NCCNc2cc(ccn2)-c2ccnc(n2)Nc2ccc(N3CCOCC3)c(c2)CN2CCCC12 (stereo not drawn) [Compound 161] | 0.182 µM | 1.58 µM | > 10 µM | > 10 µM
18 |  | COc1ccc2cc1CN(C)CCCNC(=O)[C@@H]1CCCN1Cc1cc(cc(NC(C)C)c1)Nc1nccc-2n1 [Compound 164] | > 10 µM | 2.63 µM | > 10 µM | > 10 µM
19 |  | O=C1NCCCNCc2ccc(cc2)-c2ccnc(n2)Nc2ccc(N3CCOCC3)c(c2)CN2C[C@H](O)C[C@@H]12 [Compound 169] | > 10 µM | 3.89 µM | > 10 µM | > 10 µM
20 |  | CN1CCCNC(=O)[C@@H]2CCCN2Cc2cccc(c2)Nc2nccc(n2)-c2ccc(cc2)C1 [Compound 173] | > 10 µM | 6.17 µM | > 10 µM | > 10 µM
21 |  | COc1ccc2cc1CN(C)CCNC(=O)[C@@H]1CCCN1Cc1cccc(c1)Nc1nccc-2n1 [Compound 175] | > 10 µM | 8.51 µM | > 10 µM | > 10 µM
22 |  | COc1ccc2cc1CNCCNC(=O)[C@@H]1C[C@@H](O)CN1Cc1cc(ccc1N1CCOCC1)Nc1nccc-2n1 [Compound 177] | > 10 µM | > 10 µM | > 10 µM | > 10 µM
23 |  | COc1ccc2cc1CNCCNC(=O)[C@@H]1CCCN1Cc1cc(ccc1N1CCOCC1)Nc1nccc-2n1 [Compound 178] | > 10 µM | > 10 µM | > 10 µM | > 10 µM
24 |  | COc1ccc2cc1CN(C)CCCNC(=O)[C@@H]1CCCN1Cc1cc(cc(N3CCOCC3)c1)Nc1nccc-2n1 [Compound 179] | > 10 µM | > 10 µM | > 10 µM | > 10 µM
25 |  | COc1ccc2cc1CN(C)CCCNC(=O)[C@@H]1CCCN1Cc1cccc(c1)Nc1nccc-2n1 [Compound 180] | > 10 µM | > 10 µM | > 10 µM | > 10 µM
